± gives the expanded uncertainty stated by the source.
Test: xn = mol fraction of the nth substance listed
Conditions: Liquid

Compound c1ccc2[nH]ccc2c1 [1H-indole] + Cc1ccc2ccccc2c1 has a specific volume (293.15 K, 100 kPa, x1 = 0.25) of 0.0009744 ± 7e-07 m3/kg, a specific volume (293.15 K, 100 kPa, x1 = 0.5) of 0.0009522 ± 7e-07 m3/kg and a specific volume (303.15 K, 100 kPa, x1 = 0.25) of 0.0009821 ± 9e-07 m3/kg. It also gave a specific volume (303.15 K, 100 kPa, x1 = 0.5) of 0.0009621 ± 9e-07 m3/kg, a specific volume (303.15 K, 100 kPa, x1 = 0.75) of 0.0009406 ± 8e-07 m3/kg and a specific volume (313.15 K, 100 kPa, x1 = 0.25) of 0.0009893 ± 1e-06 m3/kg. It also gave a specific volume (313.15 K, 100 kPa, x1 = 0.5) of 0.0009692 ± 1e-06 m3/kg, a specific volume (313.15 K, 100 kPa, x1 = 0.75) of 0.0009471 ± 1e-06 m3/kg and a specific volume (323.15 K, 100 kPa, x1 = 0.25) of 0.0009968 ± 1.2e-06 m3/kg. It also gave a specific volume (323.15 K, 100 kPa, x1 = 0.5) of 0.0009765 ± 1.2e-06 m3/kg, a specific volume (323.15 K, 100 kPa, x1 = 0.75) of 0.0009539 ± 1.1e-06 m3/kg and a specific volume (323.15 K, 100 kPa, x1 = 1) of 0.0009295 ± 1.1e-06 m3/kg. It also gave a specific volume (333.15 K, 100 kPa, Constant-volume piezometry, x1 = 0.25) of 0.001005 ± 3e-07 m3/kg, a specific volume (333.15 K, 100 kPa, Constant-volume piezometry, x1 = 0.5) of 0.0009836 ± 3e-07 m3/kg and a specific volume (333.15 K, 100 kPa, Constant-volume piezometry, x1 = 0.75) of 0.0009609 ± 3e-07 m3/kg. It also gave a specific volume (333.15 K, 100 kPa, Constant-volume piezometry, x1 = 1) of 0.000936 ± 3e-07 m3/kg, a specific volume (333.15 K, 100 kPa, x1 = 0.25) of 0.001005 ± 1.3e-06 m3/kg and a specific volume (333.15 K, 100 kPa, x1 = 0.5) of 0.0009836 ± 1.3e-06 m3/kg. For the same compound, the specific volume (333.15 K, 100 kPa, x1 = 0.75) was 0.0009609 ± 1.3e-06 m3/kg, the specific volume (333.15 K, 100 kPa, x1 = 1) was 0.000936 ± 1.2e-06 m3/kg and the specific volume (333.15 K, 10000 kPa, Constant-volume piezometry, x1 = 0.25) was 0.0009988 ± 3e-07 m3/kg. It also gave a specific volume (333.15 K, 10000 kPa, Constant-volume piezometry, x1 = 0.5) of 0.0009782 ± 3e-07 m3/kg, a specific volume (333.15 K, 10000 kPa, Constant-volume piezometry, x1 = 0.75) of 0.000956 ± 3e-07 m3/kg and a specific volume (333.15 K, 10000 kPa, Constant-volume piezometry, x1 = 1) of 0.0009315 ± 3e-07 m3/kg. For the same compound, the specific volume (333.15 K, 20000 kPa, Constant-volume piezometry, x1 = 0.25) was 0.000993 ± 3e-07 m3/kg, the specific volume (333.15 K, 20000 kPa, Constant-volume piezometry, x1 = 0.5) was 0.000973 ± 3e-07 m3/kg and the specific volume (333.15 K, 20000 kPa, Constant-volume piezometry, x1 = 0.75) was 0.0009513 ± 3e-07 m3/kg. It also gave a specific volume (333.15 K, 20000 kPa, Constant-volume piezometry, x1 = 1) of 0.0009273 ± 3e-07 m3/kg, a specific volume (333.15 K, 30000 kPa, Constant-volume piezometry, x1 = 0.25) of 0.0009876 ± 4e-07 m3/kg and a specific volume (333.15 K, 30000 kPa, Constant-volume piezometry, x1 = 0.5) of 0.0009679 ± 4e-07 m3/kg. For the same compound, the specific volume (333.15 K, 30000 kPa, Constant-volume piezometry, x1 = 0.75) was 0.0009467 ± 4e-07 m3/kg, the specific volume (333.15 K, 30000 kPa, Constant-volume piezometry, x1 = 1) was 0.0009228 ± 4e-07 m3/kg and the specific volume (333.15 K, 40000 kPa, Constant-volume piezometry, x1 = 0.25) was 0.0009824 ± 5e-07 m3/kg. It also gave a specific volume (333.15 K, 40000 kPa, Constant-volume piezometry, x1 = 0.5) of 0.0009633 ± 4e-07 m3/kg, a specific volume (333.15 K, 40000 kPa, Constant-volume piezometry, x1 = 0.75) of 0.0009422 ± 4e-07 m3/kg and a specific volume (333.15 K, 40000 kPa, Constant-volume piezometry, x1 = 1) of 0.0009192 ± 4e-07 m3/kg. It also gave a specific volume (333.15 K, 50000 kPa, Constant-volume piezometry, x1 = 0.25) of 0.0009776 ± 5e-07 m3/kg, a specific volume (333.15 K, 50000 kPa, Constant-volume piezometry, x1 = 0.5) of 0.0009586 ± 5e-07 m3/kg and a specific volume (333.15 K, 50000 kPa, Constant-volume piezometry, x1 = 0.75) of 0.0009379 ± 5e-07 m3/kg. It also gave a specific volume (333.15 K, 50000 kPa, Constant-volume piezometry, x1 = 1) of 0.0009157 ± 5e-07 m3/kg, a specific volume (333.15 K, 60000 kPa, Constant-volume piezometry, x1 = 0.25) of 0.0009732 ± 6e-07 m3/kg and a specific volume (333.15 K, 60000 kPa, Constant-volume piezometry, x1 = 0.5) of 0.0009544 ± 6e-07 m3/kg. The specific volume (333.15 K, 60000 kPa, Constant-volume piezometry, x1 = 0.75) was 0.0009341 ± 6e-07 m3/kg, the specific volume (333.15 K, 70000 kPa, Constant-volume piezometry, x1 = 0.25) was 0.0009685 ± 6e-07 m3/kg and the specific volume (333.15 K, 70000 kPa, Constant-volume piezometry, x1 = 0.5) was 0.0009504 ± 6e-07 m3/kg. It also gave a specific volume (333.15 K, 70000 kPa, Constant-volume piezometry, x1 = 0.75) of 0.0009304 ± 6e-07 m3/kg, a specific volume (333.15 K, 80000 kPa, Constant-volume piezometry, x1 = 0.25) of 0.0009645 ± 7e-07 m3/kg and a specific volume (333.15 K, 80000 kPa, Constant-volume piezometry, x1 = 0.5) of 0.0009464 ± 7e-07 m3/kg. For the same compound, the specific volume (333.15 K, 80000 kPa, Constant-volume piezometry, x1 = 0.75) was 0.0009267 ± 7e-07 m3/kg, the specific volume (333.15 K, 90000 kPa, Constant-volume piezometry, x1 = 0.25) was 0.0009607 ± 8e-07 m3/kg and the specific volume (333.15 K, 90000 kPa, Constant-volume piezometry, x1 = 0.5) was 0.0009427 ± 8e-07 m3/kg. The specific volume (333.15 K, 90000 kPa, Constant-volume piezometry, x1 = 0.75) was 0.0009233 ± 8e-07 m3/kg, the specific volume (333.15 K, 100000 kPa, Constant-volume piezometry, x1 = 0.25) was 0.0009569 ± 9e-07 m3/kg and the specific volume (333.15 K, 100000 kPa, Constant-volume piezometry, x1 = 0.5) was 0.0009391 ± 8e-07 m3/kg. It also gave a specific volume (333.15 K, 100000 kPa, Constant-volume piezometry, x1 = 0.75) of 0.0009198 ± 8e-07 m3/kg, a specific volume (333.15 K, 110000 kPa, Constant-volume piezometry, x1 = 0.25) of 0.0009533 ± 9e-07 m3/kg and a specific volume (333.15 K, 110000 kPa, Constant-volume piezometry, x1 = 0.5) of 0.0009358 ± 9e-07 m3/kg. The specific volume (333.15 K, 110000 kPa, Constant-volume piezometry, x1 = 0.75) was 0.0009167 ± 9e-07 m3/kg, the specific volume (333.15 K, 120000 kPa, Constant-volume piezometry, x1 = 0.25) was 0.0009497 ± 1e-06 m3/kg and the specific volume (333.15 K, 120000 kPa, Constant-volume piezometry, x1 = 0.5) was 0.0009325 ± 1e-06 m3/kg. It also gave a specific volume (333.15 K, 120000 kPa, Constant-volume piezometry, x1 = 0.75) of 0.0009134 ± 1e-06 m3/kg, a specific volume (333.15 K, 130000 kPa, Constant-volume piezometry, x1 = 0.25) of 0.0009464 ± 1.1e-06 m3/kg and a specific volume (333.15 K, 130000 kPa, Constant-volume piezometry, x1 = 0.5) of 0.0009292 ± 1e-06 m3/kg. It also gave a specific volume (333.15 K, 130000 kPa, Constant-volume piezometry, x1 = 0.75) of 0.0009104 ± 1e-06 m3/kg, a specific volume (333.15 K, 140000 kPa, Constant-volume piezometry, x1 = 0.25) of 0.0009432 ± 1.1e-06 m3/kg and a specific volume (333.15 K, 140000 kPa, Constant-volume piezometry, x1 = 0.5) of 0.0009262 ± 1.1e-06 m3/kg. The specific volume (333.15 K, 140000 kPa, Constant-volume piezometry, x1 = 0.75) was 0.0009077 ± 1.1e-06 m3/kg, the specific volume (333.15 K, 150000 kPa, Constant-volume piezometry, x1 = 0.25) was 0.00094 ± 1.2e-06 m3/kg and the specific volume (333.15 K, 150000 kPa, Constant-volume piezometry, x1 = 0.5) was 0.0009231 ± 1.2e-06 m3/kg. It also gave a specific volume (333.15 K, 150000 kPa, Constant-volume piezometry, x1 = 0.75) of 0.0009048 ± 1.2e-06 m3/kg, a specific volume (333.15 K, 160000 kPa, Constant-volume piezometry, x1 = 0.25) of 0.0009369 ± 1.3e-06 m3/kg and a specific volume (333.15 K, 160000 kPa, Constant-volume piezometry, x1 = 0.5) of 0.0009202 ± 1.3e-06 m3/kg. For the same compound, the specific volume (333.15 K, 160000 kPa, Constant-volume piezometry, x1 = 0.75) was 0.000902 ± 1.2e-06 m3/kg, the specific volume (333.15 K, 170000 kPa, Constant-volume piezometry, x1 = 0.25) was 0.000934 ± 1.3e-06 m3/kg and the specific volume (333.15 K, 170000 kPa, Constant-volume piezometry, x1 = 0.5) was 0.0009174 ± 1.3e-06 m3/kg. It also gave a specific volume (333.15 K, 180000 kPa, Constant-volume piezometry, x1 = 0.5) of 0.0009148 ± 1.4e-06 m3/kg, a specific volume (333.15 K, 190000 kPa, Constant-volume piezometry, x1 = 0.5) of 0.0009122 ± 1.5e-06 m3/kg and a specific volume (333.15 K, 200000 kPa, Constant-volume piezometry, x1 = 0.5) of 0.0009095 ± 1.5e-06 m3/kg. It also gave a specific volume (333.15 K, 210000 kPa, Constant-volume piezometry, x1 = 0.5) of 0.000907 ± 1.6e-06 m3/kg, a specific volume (333.15 K, 220000 kPa, Constant-volume piezometry, x1 = 0.5) of 0.0009047 ± 1.6e-06 m3/kg and a specific volume (333.15 K, 230000 kPa, Constant-volume piezometry, x1 = 0.5) of 0.0009023 ± 1.7e-06 m3/kg. The specific volume (333.15 K, 240000 kPa, Constant-volume piezometry, x1 = 0.5) was 0.0008999 ± 1.8e-06 m3/kg, the specific volume (333.15 K, 250000 kPa, Constant-volume piezometry, x1 = 0.5) was 0.0008977 ± 1.8e-06 m3/kg and the specific volume (333.15 K, 260000 kPa, Constant-volume piezometry, x1 = 0.5) was 0.0008956 ± 1.9e-06 m3/kg. The specific volume (333.15 K, 270000 kPa, Constant-volume piezometry, x1 = 0.5) was 0.0008934 ± 2e-06 m3/kg, the specific volume (343.15 K, 100 kPa, x1 = 0.25) was 0.001013 ± 1.5e-06 m3/kg and the specific volume (343.15 K, 100 kPa, x1 = 0.5) was 0.0009909 ± 1.4e-06 m3/kg. It also gave a specific volume (343.15 K, 100 kPa, x1 = 0.75) of 0.0009674 ± 1.4e-06 m3/kg, a specific volume (343.15 K, 100 kPa, x1 = 1) of 0.0009428 ± 1.4e-06 m3/kg and a specific volume (353.15 K, 100 kPa, x1 = 0.25) of 0.00102 ± 1.6e-06 m3/kg. For the same compound, the specific volume (353.15 K, 100 kPa, x1 = 0.5) was 0.0009983 ± 1.6e-06 m3/kg, the specific volume (353.15 K, 100 kPa, x1 = 0.75) was 0.0009747 ± 1.6e-06 m3/kg and the specific volume (353.15 K, 100 kPa, x1 = 1) was 0.0009499 ± 1.5e-06 m3/kg.

From the NIST ThermoML archive (doi:10.1007/s10765-009-0625-z)
